Results published in patent US20230381142A1, “ANTILEISHMANIAL COMPOUNDS, COMPOSITIONS AND USE THEREOF” (TRUSTEES OF BOSTON UNIVERSITY, priority 2022, published 2023).

Key:
[1] = GSK inMac assay, host cell toxicity readout (LD MAC); assay type: cell-based, human; settings: human; footnote c; read-out: THP-1 Host Cell CC50
Description: (§1) The intramacrophage Leishmania donovani activity assay (LD AMMAC) at GlaxoSmithKline was performed as described.
(§2) Given the literature precedents described above and the apparent narrow tolerance for R^3 substitutions observed in the primary screen compounds, a thorough and methodical assessment was undertaken of tolerated groups at the three points of diversity (R^1/R^2/R^3) for the core. At this stage of the project, all analogues were assessed using a battery of assays performed in-house at GlaxoSmithKline. For antileishmanial activity, GSK's inMac assay was utilized. This assay provides two readouts of compound potency: average number of intracellular amastigotes per infected cell (AMMAC) EC50, percentage of infected cells per well (INFCELL) EC50, as well as a toxicity output derived from the number of host cells (MAC EC50). In addition, compounds were assessed for toxicity against HepG2 cells (HEPG2 EC50). Here, AMMAC EC50 values were focused on for relative potency assessments. […] It should be noted that for all compounds assessed in this project, the measured toxicity against THP-1 macrophages either equaled or exceeded that of HepG2 hepatocytes, therefore the MAC SI is used here as the more conservative estimate of therapeutic index.

[2] = tested on: L. donovani intracellular amastigotes infecting THP-1 macrophages; assay: GSK intramacrophage L. donovani assay (LD AMMAC, inMac; Assay Conditions C); assay type: cell-based; settings: Leishmania donovani; THP-1 cells; values marked c; read-out: L. donovani amastigotes EC50 (THP-1 cells)
Description: Assay Conditions C: The intramacrophage Leishmania donovani activity assay was performed as described in Antimicrob Agents Chemother (2013) 57(7):2913-22.
as §1, §2

SMILES | CC50 [1] [µM] | EC50 [2] [µM]
COc1ccc(N2C(=O)c3[nH]nc(-c4ccc(Cl)cc4Cl)c3C2c2ccc(F)cc2)cc1 (centres unmarked) [CMLD011093] | > 50 | 20
COC(=O)c1ccc(N2C(=O)c3[nH]nc(CC(C)C)c3C2C2CCCCC2)cc1 (centres unmarked) [CMLD011094] | > 50 | 39.8
CC(C)Cc1n[nH]c2c1C(c1ccc(F)cc1)N(c1ccccn1)C2=O (centres unmarked) [CMLD011095] | > 50 | 20
COc1ccc(N2C(=O)c3[nH]nc(CC(C)C)c3C2c2ccc(Cl)cc2)cc1 (centres unmarked) [CMLD011096] | 15.9 | 4
CC(C)Cc1n[nH]c2c1C(c1ccc(F)cc1)N(c1ccc(F)cc1F)C2=O (centres unmarked) [CMLD011097] | 39.8 | 12.6
CC(C)Cc1n[nH]c2c1C(c1ccc(F)cc1)N(c1cccnc1)C2=O (centres unmarked) [CMLD011098] | > 50 | 25.1
COc1ccc(N2C(=O)c3[nH]nc(CC(C)C)c3C2c2cccc(Cl)c2)cc1 (centres unmarked) [CMLD011099] | 39.8 | 7.9
COc1ccc(N2C(=O)c3[nH]nc(CC(C)C)c3C2c2ccccc2F)cc1 (centres unmarked) [CMLD011102] | 31.6 | 3.2
COc1ccc(N2C(=O)c3[nH]nc(CC(C)C)c3C2c2ccccc2Cl)c(OC)c1 (centres unmarked) [CMLD011103] | 20 | 10
COc1ccc(N2C(=O)c3[nH]nc(CC(C)C)c3C2c2ccsc2)cc1 (centres unmarked) [CMLD011104] | > 50 | 6.3
CC(C)Cc1n[nH]c2c1C(c1ccc(F)cc1)N(c1ccc3c(c1)OC(F)(F)O3)C2=O (centres unmarked) [CMLD011105] | 12.6 | 2.5
COc1ccc(N2C(=O)c3[nH]nc(CC(C)C)c3C2c2cccc(C(F)(F)F)c2)cc1F (centres unmarked) [CMLD011106] | 25.1 | 6.3
COc1ccc(N2C(=O)c3[nH]nc(CC(C)C)c3C2c2ccccc2Br)c(OC)c1 (centres unmarked) [CMLD011109] | 15.8 | 6.3
COc1ccc(N2C(=O)c3[nH]nc(CC(C)C)c3C2c2cccs2)cc1 (centres unmarked) [CMLD011110] | > 50 | 7.9
CC(C)Cc1n[nH]c2c1C(c1ccccc1Br)N(c1ccc(F)cc1)C2=O (centres unmarked) [CMLD011111] | 15.8 | 4
COc1ccccc1N1C(=O)c2[nH]nc(CC(C)C)c2C1c1ccccc1Br (centres unmarked) [CMLD011112] | 25.1 | 12.6

SMILES | CC50 [1] [µM] | EC50 [2] [µM]
CC(C)Cc1n[nH]c2c1C(c1ccc(F)cc1)N(c1ccc(F)cc1)C2=O (centres unmarked) [CMLD011113] | 25.1 | 6.3
COc1ccc(N2C(=O)c3[nH]nc(CC(C)C)c3C2c2cccc(C(F)(F)F)c2)c(OC)c1 (centres unmarked) [CMLD011115] | 20 | 12.6
COc1cc(N2C(=O)c3[nH]nc(CC(C)C)c3C2c2ccccc2Cl)cc(OC)c1OC (centres unmarked) [CMLD011116] | 6.3 | 5
COCCN1C(=O)c2[nH]nc(CC(C)C)c2C1c1ccc(F)cc1 (centres unmarked) [CMLD011117] | > 50 | > 50
CC(C)Cc1n[nH]c2c1C(c1cccc(C(F)(F)F)c1)N(c1ccc(F)cc1)C2=O (centres unmarked) [CMLD011119] | 25.1 | 2.5
COc1ccc(N2C(=O)c3[nH]nc(CC(C)C)c3C2c2ccc(F)c(C)n2)cc1 (centres unmarked) [CMLD011120] | > 50 | 12.6
COc1ccc(N2C(=O)c3[nH]nc(CC(C)C)c3C2c2ccc(C(F)(F)F)cc2)cc1 (centres unmarked) [CMLD011121] | 15.9 | 8
CC(C)Cc1n[nH]c2c1C(c1cccc(C(F)(F)F)c1)N(c1ccc(C(C)(C)C)cc1)C2=O (centres unmarked) [CMLD011122] | 10 | 6.3
CC(C)Cc1n[nH]c2c1[C@@H](c1ccc(F)cc1)N([C@H]1CC[C@H](N(C)C)CC1)C2=O [CMLD011124] | > 50 | 25.1
COc1ccc(N2C(=O)c3[nH]nc(CC(C)C)c3C2c2ccccn2)cc1 (centres unmarked) [CMLD011125] | > 50 | 31.6
CC(C)Cc1n[nH]c2c1C(c1cccc(C(F)(F)F)c1)N(CCN1CCCC1)C2=O (centres unmarked) [CMLD011126] | 39.8 | 20
CC(C)Cc1n[nH]c2c1C(c1ccc(F)cc1)N(CC1CCN(C)C1)C2=O (centres unmarked) [CMLD011129] | > 50 | > 50
COc1ccccc1N1C(=O)c2[nH]nc(CC(C)C)c2C1c1ccccc1Cl (centres unmarked) [CMLD011130] | 25.1 | 15.8
CC(C)Cc1n[nH]c2c1C(c1cccc(Cl)c1)N(c1ccc(C(C)(C)C)cc1)C2=O (centres unmarked) [CMLD011131] | 15.8 | 2.5
CC(C)Cc1n[nH]c2c1C(c1cccc(Cl)c1)N(c1ccc3c(c1)OCO3)C2=O (centres unmarked) [CMLD011132] | 20 | 5
